Results from ChEMBL document CHEMBL1143016, “Scutiaquinones A and B, perylenequinones from the roots of Scutia myrtina with anthelmintic activity” (J Nat Prod, 2007).
Values after ≈ are worked out from the molar mass of the structure shown. Active and inactive are the calls of the source. The calls are words filed in the database; no cut-off is given here.

What was measured:
[1] = system: Haemonchus contortus; assay: Anthelmintic activity against Haemonchus contortus assessed as reduction in L3 larval motility; assay type: functional
[2] = system: Heligmosomoides polygyrus; assay: Anthelmintic activity against Heligmosomoides polygyrus infected Swiss-Webster mouse assessed as reduction of worm counts at 25 mg/kg, im; assay type: functional, organism-based; set-up: dose 25 mg/kg
[3] = system: Mus musculus; assay: Toxicity in Swiss-Webster mouse at 50 mg/kg, im; assay type: organism-based; set-up: dose 50 mg/kg, route intramuscular; settings: in vivo
[4] = system: Heligmosomoides polygyrus; assay: Anthelmintic activity against Heligmosomoides polygyrus infected Swiss-Webster mouse assessed as reduction of worm counts at 30 mg/kg, im; assay type: functional, organism-based; set-up: dose 30 mg/kg

Cc1cc2c3cc(C)c(O)c4c(=O)c5c(c(c6c7c(c(=O)c(c1O)c26)[C@@H](C)O[C@@H](C)C7)c43)C[C@H](C)O[C@@H]5C [SCUTIAQUINONE A]
EC90 [1]: 9.3 µg/mL (≈ 18.2 µM)
Activity [2]: inactive

Cc1cc2c3c4c(c(O)c5c(=O)c(C)cc(c6c7c(c(=O)c(c1O)c26)[C@@H](C)O[C@@H](C)C7)c53)[C@@H](C)O[C@@H](C)C4 [SCUTIAQUINONE B]
EC90 [1]: 10.3 µg/mL (≈ 20.2 µM)
Activity [3]: Toxic
Activity [4]: inactive
